Test results from patent US12497359B2, “Acrylamide derivatives” (NRG Therapeutics Ltd, priority 2020, dated 2025).
≈ marks a conversion by molar mass, not a printed value.

Key:
[1] = Microsomal clearance assay, rat liver microsomes; format: in vitro ADME; conditions: average value from two experiments, read-out: Rat liver microsomes intrinsic clearance (CLint)
Method: The microsomal stability of test compounds was evaluated using rat liver microsomes (BioIVT) with and without the cofactors nicotinamide adenine dinucleotide phosphate (NADPH) and uridine-diphosphate-glucuronic acid (UDPGA). Reactions were performed in a final volume of 250 μl pre-warmed (37° C.) 100 mM phosphate buffer containing 5 mM MgCl2, 0.025 mg/ml alamethicin, and 0.5 mg/ml rat liver microsomes. NADPH and UDPGA were included at 1 mM and 2 mM respectively, where appropriate. Reactions were started with the addition of 1 μM (final concentration) test compound. Verapamil was used as the positive control. Solutions were incubated in a water bath at 37° C. and aliquots collected at 0.5, 5, 15, 30 and 60 min. Reactions were stopped by the addition of 5 volumes of cold acetonitrile with internal standards (200 nM caffeine and 100 nM tolbutamide). Samples were centrifuged at 3220 g for 40 min. An aliquot of supernatant was diluted 1:1 In ultra-pure H20, then used for LC-MS/MS analysis. Peak areas were determined from extracted ion chromatograms. The slope value, k, was determined by linear regression of the natural logarithm of the remaining percentage of the parent drug vs. incubation time curve. The in vitro half-life (in vitro t1/2) was determined from the slope value: in vitro t1/2=0.693/k. Conversion of the in vitro t1/2 (min) into the in vitro intrinsic clearance (in vitro CLint, in μL/min/mg protein) was done using the following equation (mean of duplicate determinations): in vitro Clint=(0.693/t1/2)*(Vol of incubation (μl)/amount of protein (mg)).

mPTP = mPTP activity assay in isolated rat liver mitochondria (Ca2+ retention, Fluo5N, FLIPR); format: biochemical; conditions: for mPTP Rat liver pIC50*: isolated rat liver mitochondria, average value from multiple experiments (n ≥ 2)
Description: Pharmacological inhibition or modulation of the mPTP can be measured in well characterised ‘Ca^2+ retention’ assays performed in isolated mitochondria. In vitro, isolated mitochondria rapidly sequester exogenous Ca^2+ until the intramitochondrial Ca^2+ concentration reaches the threshold for mPTP activation. Once the pore is activated, mitochondrial integrity is compromised and the stored Ca^2+ is released. The distribution of Ca^2+ between extra- and intra-mitochondrial compartments can be measured in real time with the use of membrane-impermeant Ca^2+ sensitive fluorescent dyes. Depending on the configuration of the assay, inhibition or modulation of the mPTP either delays the opening of the pore or increases the concentration of Ca^2+ required to induce mPTP opening.
mPTP activity was measured in mitochondria freshly isolated from female Sprague Dawley (250 to 300 gram) rat livers using the following method. Cervical dislocation was performed on the rat. The liver was then perfused in-situ with ˜40 ml cold Dulbecco's Phosphate Buffered Saline (DPBS) prior to dissection and transferred into 30 ml Isolation Buffer (250 mM Sucrose, 10 mM KCl, 1 mM EGTA, 1 mM EDTA, 25 mM HEPES, adjusted to pH 7.5 with 1 M NaOH). Each lobe of the liver was then removed from the buffer, minced using tweezers and a scalpel into ˜5 mm pieces then transferred into a 50 ml Potterton dounce homogenization tube on ice containing 30 ml ice-cold centrifugation buffer (300 mM Trehalose, 25 mM HEPES, 1 mM EGTA, 1 mM EDTA, 10 mM KCl, adjusted to pH 7.5 with 1 M NaOH and supplemented with 0.1% bovine serum albumin (BSA) and complete protease inhibitor cocktail (one tablet of inhibitor per 50 mls of buffer). Homogenisation was carried out using a teflon pestle at 1800 rpm. The slurry was centrifuged at 800 g for 10 min at 4° C., then the supernatant centrifuged at 10,000 g for 10 min. The pellet was washed once with FLIPR assay buffer (75 mM Mannitol, 25 mM Sucrose, 5 mM Potassium Phosphate Monobasic, 20 mM Tris base, 100 mM KCl, 0.1% BSA adjusted to pH 7.4 with 5 M HCl) centrifuged again, then resuspended in FLIPR assay buffer to a concentration of 8.8 mg/ml protein.
Test compounds (10 mM stock in DMSO) were serially diluted in DMSO in half log steps to generate 10 test concentrations (final concentrations in assay 30 μM to 1 nM). An intermediate dilution of 5 μl DMSO samples into 247 μl FLIPR assay buffer was carried out prior to transfer of 5 μl into duplicate wells of a 384 well polypropylene assay plate. Control wells were 0.5% (v/v) DMSO and 5 μM cyclosporin A.
A stock mitochondria/Fluo5N assay solution was prepared in 5.6 ml FLIPR assay buffer (at RT) supplemented with succinate disodium salt (10 mM), rotenone (1 μM), Fluo5N pentapotassium salt (2 μM) and 1 ml mitochondria suspension, then transferred (15 μl) into the assay plate containing test compounds and incubated for 10 min at RT. Assay plates were then transferred to a FLIPR Tetra plate reader (Molecular Devices). Dye fluorescence was then measured every 3 sec for a total of 10 min. After 12 sec, a 2.5 μl bolus of CaCl2 (75 μM) was added from a source plate containing 675 μM CaCl2 in FLIPR assay buffer. IC50 values for test compounds were calculated using the fluorescence value collected at the 10 min timepoint with % inhibition calculated using the DMSO control and cyclosporin A values as […] respectively.

PBS solubility = format: physicochemical; conditions: aqueous buffer, kinetic from dmso stock; PBS pH 7.4, 2 hr at 25° C.
Method: (§1) Test compounds were prepared as 10 mM stocks in DMSO and 15 μl samples transferred in duplicate into 1.5 mL glass flat bottom vials (BioTech Solutions). Fasted state simulated intestinal fluid (FaSSIF) or PBS (pH 7.4) was added to each vial to final volume of 500 μl. One PTFE encapsulated stir stick (V&P Scientific) was placed in each vial before sealing with PTFE/SIL plugs (BioTech Solutions). Vials were shaken at 1100 rpm for 2 hr at 25° C. Samples were then filtered through MultiScreen Solvinert filter plates (Millipore) via vacuum filtration. Aliquots of filtrate (5 μl) plus 5 μl DMSO were diluted in 490 μl 50% acetonitrile in water containing internal standard. The filtrate was analysed and quantified against a standard of known concentration using LC-MS/MS. Solubility values of the test compound and control compound were calculated as follows: [Sample]=(Area ratiosample*INJ VOL STD*DFsample*[STD])/(Area ratio STD*INJ VOLsample).

FaSSIF solubility = format: physicochemical; conditions: kinetic from dmso stock, Fasted state simulated intestinal fluid, 2 hr at 25° C.
Method: as §1

[2] = Hepatocyte clearance assay, rat; format: in vitro ADME; conditions: cryopreserved primary rat hepatocytes, average value from two experiments, read-out: Rat heps intrinsic clearance (CLint)
Method: (§2) In vitro clearance studies were performed in primary rat and human hepatocytes (BioIVT). Vials of cryopreserved rat or human hepatocytes were thawed in a 37° C. water bath for 2 min. Cells were transferred into thawing medium (Williams' Medium E containing 30% Percoll, 1× GlutaMAX-1, 15 mM HEPES, 5% fetal bovine serum (FBS), 4 μg/ml insulin, 1 μM dexamethasone), centrifuged at 100 g for 10 min then resuspended in culture medium (Leibovitz's L-15 Medium) at a concentration of 0.5×10^6 viable cells/mL (number of viable cells assessed using AO/PI staining). Hepatocytes (198 μL) were transferred into wells of a 96-well non-coated plate and placed in a 37° C. incubator for 10 min. Test compound solutions were prepared from 10 mM stocks in DMSO, diluted to 100 μM in 50% (v/v in water) acetonitrile. Test compound samples (2 μl) were added to each well of hepatocytes and incubated at 37° C. Samples (25 μl) were collected at t=0, 15, 30, […] and 120 min, mixed with 6 volumes (150 μl) of acetonitrile containing internal standard (100 nM alprazolam, 200 nM caffeine and 100 nM tolbutamide), vortexed for 5 min and centrifuged for 45 min at 3220 g. An aliquot of supernatant (100 μL) was diluted with 100 μL ultra-pure water, and the mixture was used for LC/MS/MS analysis. All incubations were performed in duplicate. Peak areas were determined from extracted ion chromatograms. The slope value, k, was determined by linear regression of the natural logarithm of the remaining percentage of the parent drug vs. incubation time curve. The in vitro half-life (in vitro t1/2) was determined from the slope value: in vitro t1/2=0.693/k. Conversion of the in vitro t1/2 (in min) into the in vitro intrinsic clearance (in vitro CLint, in μL/min/1×10^6 cells) was done using the following equation (mean of duplicate determinations): • in vitro CLint=kV/N • V=incubation volume (0.2 mL) • N=number of hepatocytes per well (0.1×10^6 cells). Microsomal Clearance Assay

[3] = Hepatocyte clearance assay, human; format: in vitro ADME; conditions: cryopreserved primary human hepatocytes, average value from two experiments, read-out: Human heps intrinsic clearance (CLint)
Method: as §2

SMILES | microsomal CLint at 1 µM [1] | mPTP Rat liver pIC50* (mPTP) | solubility at 2 h (PBS solubility) | solubility at 2 h (FaSSIF solubility) | hepatocyte CLint at 1 µM [2] | activity in the rat liver mitochondria assay (mPTP; comparison among Example compounds, in words) | hepatocyte CLint at 1 µM [3]
Cc1c(F)cccc1NC(=O)/C=C/c1ccc2cn[nH]c2c1C [Example 1, (E)-N-(3-fluoro-2-methylphenyl)-3-(7-methyl-1H-indazol-6-yl)acrylamide] | 118 µL/min/mg | 7.1 | 0.11 µM (≈ 0.034 µg/mL) | 2 µM (≈ 0.619 µg/mL) |  |  | 
O=C(/C=C/c1cc(Cl)c2cn[nH]c2c1)NC1CCc2ccccc21 (centres unmarked) [Example 13, (E)-3-(4-chloro-1H-indazol-6-yl)-N-(2,3-dihydro-1H-inden-1-yl)acrylamide] |  | 7.0 |  | 4 µM (≈ 1.35 µg/mL) | 95 µL/min/1e6 cells |  | 
Cc1ccc(F)c(C)c1NC(=O)/C=C/c1ccc2cn[nH]c2c1 [Example 28, (E)-N-(3-fluoro-2,6-dimethylphenyl)-3-(1H-indazol-6-yl)acrylamide] |  | 8.1 |  |  |  | highest activity | 21 µL/min/1e6 cells
O=C(/C=C/c1ccc2cn[nH]c2c1F)NC1CCc2ccccc21 (centres unmarked) [Example 9, (E)-N-(2,3-dihydro-1H-inden-1-yl)-3-(7-fluoro-1H-indazol-6-yl)acrylamide] |  | 7.2 | 0.4 µM (≈ 0.129 µg/mL) | 11 µM (≈ 3.53 µg/mL) | 61 µL/min/1e6 cells |  | 
O=C(/C=C/c1ccc2cn[nH]c2n1)NC1CCc2ccccc21 (centres unmarked) [Example 36, (E)-N-(2,3-dihydro-1H-inden-1-yl)-3-(1H-pyrazolo[3,4-b]pyridin-6-yl)acrylamide] |  | 6.3 |  | 45 µM (≈ 13.7 µg/mL) |  |  | 12 µL/min/1e6 cells
O=C(/C=C/c1ccc2cn[nH]c2c1)NC1CCc2cc(F)ccc21 (centres unmarked) [Example 7, (E)-N-(5-fluoro-2,3-dihydro-1H-inden-1-yl)-3-(1H-indazol-6-yl)acrylamide] | 38 µL/min/mg | 7.2 | 4.1 µM (≈ 1.32 µg/mL) |  |  |  | 
C[C@@H]1CCCC[C@H]1NC(=O)/C=C/c1ccc2cn[nH]c2c1 (racemic) [Example 4, (E)-3-(1H-indazol-6-yl)-N-((1R,2R)-2-methylcyclohexyl)acrylamide] | 39 µL/min/mg | 6.3 | 5.2 µM (≈ 1.47 µg/mL) |  | 68 µL/min/1e6 cells |  | 
O=C(/C=C/c1ccc2cn[nH]c2c1)NC1CCc2c(F)cccc21 (centres unmarked) [Example 8, (E)-N-(4-fluoro-2,3-dihydro-1H-inden-1-yl)-3-(1H-indazol-6-yl)acrylamide] | 41 µL/min/mg | 6.9 | 6.3 µM (≈ 2.02 µg/mL) |  |  |  | 
O=C(/C=C/c1ccc2cn[nH]c2c1)NC1CCc2ccccc21 (centres unmarked) [Example 2, (E)-N-(2,3-dihydro-1H-inden-1-yl)-3-(1H-indazol-6-yl)acrylamide] | 59 µL/min/mg | 7.6 | 10 µM (≈ 3.03 µg/mL) |  | 33 µL/min/1e6 cells |  | 14 µL/min/1e6 cells
O=C(/C=C/c1ccc2cn[nH]c2c1)NC1CCc2cccc(F)c21 (centres unmarked) [Example 5, (E)-N-(7-fluoro-2,3-dihydro-1H-inden-1-yl)-3-(1H-indazol-6-yl)acrylamide] | 55 µL/min/mg | 6.3 | 2.5 µM (≈ 0.803 µg/mL) |  |  |  | 
Cc1c(F)cccc1NC(=O)/C=C/c1cnc2cn[nH]c2c1 [Example 34, (E)-N-(3-fluoro-2-methylphenyl)-3-(1H-pyrazolo[4,3-b]pyridin-6-yl)acrylamide] | 51 µL/min/mg | 6.0 | 13 µM (≈ 3.85 µg/mL) |  |  |  | 
O=C(/C=C/c1ccc2cn[nH]c2c1)Nc1ccccc1CN1CC(F)C1 [Example 31, (E)-N-(2-((3-fluoroazetidin-1-yl)methyl)phenyl)-3-(1H-indazol-6-yl)acrylamide] |  | 6.3 | 59 µM (≈ 20.7 µg/mL) |  | 101 µL/min/1e6 cells |  | 36 µL/min/1e6 cells
O=C(/C=C/c1cc(F)c2cn[nH]c2c1)NC1CCc2ccccc21 (centres unmarked) [Example 11, (E)-N-(2,3-dihydro-1H-inden-1-yl)-3-(4-fluoro-1H-indazol-6-yl)acrylamide] | 58 µL/min/mg | 7.3 | 1.4 µM (≈ 0.45 µg/mL) |  | 45 µL/min/1e6 cells |  | 26.7 µL/min/1e6 cells
